From PubChem BioAssay (NCI)
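Exposure lasted 48 hours, with cells grown in 96-well plates and compounds tested at five concentrations. At the GI50, growth is halved. The concentration for full growth arrest is given as TGI.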 Starred links: 1 amine or outer side, 2 acyl side, 3 side chain; linkers in the order of their positions; H or OH if unused. Positions of bridges follow the written chain, without caps; N, C: chain ends. Non-standard residues stand in square brackets, D forms with d. Residues, ends and D or L forms follow the SMILES beside them. Chains are numbered I, II in the order given. Actinocin(1to9) = Cc1c2oc3c(C)ccc(C(=O)[*:2])c3nc-2c(C(=O)[*:1])c(N)c1=O; NMeV = CN[CH](C(=O)O)C(C)C; Sar = CNCC(=O)O

Legend:
Assay in all cases: NCI tumour cell line growth inhibition, 48 h
SK-OV-3 ovarian = tested on: SK-OV-3 ovarian
UACC-257 melanoma = tested on: UACC-257 melanoma
SF-539 CNS = tested on: SF-539 CNS
U251 CNS = tested on: U251 CNS
COLO 205 colon = tested on: COLO 205 colon
A549 NSCLC = tested on: A549 NSCLC
OVCAR-3 ovarian = tested on: OVCAR-3 ovarian
CAKI-1 renal = tested on: CAKI-1 renal
HS 578T breast = tested on: HS 578T breast
BT-549 breast = tested on: BT-549 breast

Compound	TGI (SK-OV-3 ovarian)	TGI (UACC-257 melanoma)	TGI (SF-539 CNS)	TGI (U251 CNS)	TGI (COLO 205 colon)	TGI (A549 NSCLC)	TGI (OVCAR-3 ovarian)	TGI (CAKI-1 renal)	TGI (HS 578T breast)	TGI (BT-549 breast)	GI50 (SK-OV-3 ovarian)	GI50 (UACC-257 melanoma)	GI50 (SF-539 CNS)	GI50 (U251 CNS)	GI50 (COLO 205 colon)	GI50 (A549 NSCLC)	GI50 (HS 578T breast)	GI50 (OVCAR-3 ovarian)	GI50 (BT-549 breast)
N#CC12Cc3cc4c(cc3-c3cccc(c31)CCN2C(=O)c1ccccc1)OCO4 (stereo unspecified)	> 100 µM	> 100 µM	> 100 µM	> 100 µM	> 100 µM	> 100 µM	> 100 µM	–	–	–	–	–	–	–	–	–	–	–	–
Clc1ccccc1/C=c1\nc(-c2ccccc2)n2c1nc1ccccc12	71.7 µM	> 100 µM	41.9 µM	61.3 µM	> 100 µM	> 100 µM	> 100 µM	> 100 µM	> 100 µM	50 µM	–	–	–	–	–	–	–	–	–
CC(C)(C)OC(=O)NC(CCCCNC(=O)OCc1ccccc1)C(=O)NCCNc1ccc(NCCNC(=O)C(CCCCNC(=O)OCc2ccccc2)NC(=O)OC(C)(C)C)c2c1C(=O)c1ccccc1C2=O (stereo unspecified)	> 90.1 µM	> 100 µM	> 52.8 µM	17.1 µM	> 100 µM	> 100 µM	> 100 µM	> 100 µM	> 49.7 µM	> 100 µM	–	–	–	–	–	–	–	–	–
COc1ccc(C(=O)C2=NON3OC23C(=O)c2ccc(OC)cc2)cc1 (stereo unspecified)	33.7 µM	34.9 µM	24 µM	30.3 µM	21.7 µM	48.5 µM	23.3 µM	6.79 µM	–	–	–	–	–	–	–	–	–	–	–
O=C(O[C@@H](/C=C/c1ccccc1)P1(=O)N(Cc2ccccc2)[C@H]2CCCC[C@@H]2N1Cc1ccccc1)c1ccccc1	77.1 µM	9.43 µM	21.3 µM	11.1 µM	3.17 µM	> 100 µM	33.9 µM	11.5 µM	> 100 µM	> 100 µM	–	–	–	–	–	–	–	–	–
O=c1[nH]c(Nc2ccc(Cl)c(C(F)(F)F)c2)nc2nc[nH]c12	> 100 µM	> 100 µM	> 100 µM	> 100 µM	> 100 µM	> 100 µM	> 100 µM	> 100 µM	> 100 µM	> 100 µM	–	–	–	–	–	–	–	–	–
CN(C)c1ccc(C=Nc2ccc(-c3nc4ccccc4[nH]3)cc2)cc1	> 100 µM	> 100 µM	> 100 µM	> 100 µM	> 100 µM	> 100 µM	> 100 µM	> 100 µM	> 100 µM	88.8 µM	–	–	–	–	–	–	–	–	–
COCC1CCCN1c1ccc(C=N/C(C#N)=C(\N)C#N)cc1 (stereo unspecified)	> 100 µM	> 100 µM	> 100 µM	> 100 µM	> 100 µM	> 100 µM	> 100 µM	–	> 100 µM	> 100 µM	27.5 µM	> 100 µM	40.3 µM	17.2 µM	> 100 µM	14 µM	> 100 µM	46.1 µM	98.9 µM
OCc1cn(C(c2ccccc2)(c2ccccc2)c2ccccc2)cn1	> 100 µM	> 100 µM	–	> 100 µM	> 100 µM	> 100 µM	> 100 µM	> 100 µM	95.7 µM	–	–	–	–	–	–	–	–	–	–
c1ccc(-c2nnn3c2NC2=C(CCCC2)C3c2ccccc2)cc1 (stereo unspecified)	50.7 µM	52.2 µM	35.8 µM	26 µM	30.2 µM	32.8 µM	37.7 µM	38.8 µM	81.7 µM	–	–	–	–	–	–	–	–	–	–
COc1c(CC=C(C)C)c(O)c(C(CC(C)C)c2c(O)c3c(c(C(C)=O)c2O)OC(C(C)(C)O)C3)c(O)c1C(C)=O (stereo unspecified)	> 12.5 µM	12.4 µM	> 12.5 µM	–	8.38 µM	> 12.5 µM	> 12.5 µM	> 12.5 µM	> 12.5 µM	9.49 µM	–	–	–	–	–	–	–	–	–
OC(c1ccccc1)(c1ccccc1)c1nccc2ccccc12	70.2 µM	> 100 µM	–	> 100 µM	> 100 µM	> 100 µM	52.5 µM	> 100 µM	> 100 µM	37.2 µM	–	–	–	–	–	–	–	–	–
CC(O)(Cc1ccccc1C#N)Cc1ccccc1C#N	> 100 µM	> 100 µM	> 100 µM	> 100 µM	> 100 µM	> 100 µM	> 100 µM	> 100 µM	> 100 µM	> 100 µM	–	–	–	–	–	–	–	–	–
CC(=O)OC1CC[C@@]2(C)C(=CC[C@@H]3[C@@H]2CC[C@]2(C)Nc4nn(S(C)(=O)=O)cc4C[C@@H]32)C1 (stereo partly specified)	> 100 µM	–	–	> 100 µM	> 100 µM	–	57.8 µM	> 100 µM	> 100 µM	45 µM	–	–	–	–	–	–	–	–	–
Cc1coc2c1C[C@@]1(C)[C@H](CCC[C@@H]1C)[C@H]2O	> 100 µM	88.3 µM	62.8 µM	> 100 µM	> 100 µM	–	57.8 µM	> 100 µM	> 100 µM	–	–	–	–	–	–	–	–	–	–
COCCNCc1ccc(-c2cc3nccc(Oc4ccc(NC(=S)NC(=O)Cc5ccc(F)cc5)cc4F)c3s2)nc1	34.4 µM	3.52 µM	2.41 µM	2.94 µM	4.3 µM	3.29 µM	3.52 µM	–	4.91 µM	–	18.5 µM	1.84 µM	0.909 µM	1.53 µM	2.02 µM	1.72 µM	1.81 µM	1.93 µM	–
O=C(O)c1ccc(C(=O)c2ccccc2C(=O)O)cc1C(=O)O	> 100 µM	> 100 µM	> 100 µM	> 100 µM	> 100 µM	> 100 µM	> 100 µM	> 100 µM	> 100 µM	> 100 µM	–	–	–	–	–	–	–	–	–
CCOC(=O)C(/C(=N/S(=O)(=O)c1cc(C)c(Cl)cc1[S-])[n+]1ccc(N(C)C)cc1)=C(/O)c1ccc([N+](=O)[O-])cc1	68.4 µM	25.3 µM	53.9 µM	> 100 µM	90.2 µM	> 100 µM	> 100 µM	99.7 µM	–	92.7 µM	–	–	–	–	–	–	–	–	–

Compound	TGI (SK-OV-3 ovarian)	TGI (UACC-257 melanoma)	TGI (SF-539 CNS)	TGI (U251 CNS)	TGI (COLO 205 colon)	TGI (A549 NSCLC)	TGI (OVCAR-3 ovarian)	TGI (CAKI-1 renal)	TGI (HS 578T breast)	TGI (BT-549 breast)	GI50 (SK-OV-3 ovarian)	GI50 (UACC-257 melanoma)	GI50 (SF-539 CNS)	GI50 (U251 CNS)	GI50 (COLO 205 colon)	GI50 (A549 NSCLC)	GI50 (HS 578T breast)	GI50 (OVCAR-3 ovarian)	GI50 (BT-549 breast)
Nc1c(C(=O)O)nnc2cc(Cl)c(Cl)cc12	> 100 µM	> 100 µM	> 100 µM	> 100 µM	> 100 µM	> 100 µM	> 100 µM	> 100 µM	> 100 µM	> 100 µM	–	–	–	–	–	–	–	–	–
COc1ccc(C2NC(=S)Nc3c2c(=O)oc2c3ccc3ccccc32)cc1 (stereo unspecified)	> 100 µM	> 100 µM	–	> 100 µM	> 100 µM	> 100 µM	> 100 µM	> 100 µM	> 100 µM	> 100 µM	–	–	–	–	–	–	–	–	–
Cc1cc(C)n(CC(Cn2nc(C)cc2C)=C(/C(Cl)=C(/Cl)Nc2ccc([N+](=O)[O-])cc2)[N+](=O)[O-])n1	14.2 µM	12.3 µM	9.27 µM	13.5 µM	5.36 µM	13.3 µM	15.2 µM	5.98 µM	33.2 µM	15.7 µM	–	–	–	–	–	–	–	–	–
COc1nc2[nH]ccc2c(=O)[nH]1	–	> 100 µM	> 100 µM	> 100 µM	> 100 µM	> 100 µM	–	> 100 µM	–	–	–	–	–	–	–	–	–	–	–
Cn1cnc([N+](=O)[O-])c1Sc1nc(N)nc2c1ncn2C1OC(CO)C(O)C1O (stereo unspecified)	45.5 µM	> 100 µM	85.6 µM	> 100 µM	23.8 µM	> 91 µM	> 43.4 µM	> 100 µM	> 100 µM	> 100 µM	–	–	–	–	–	–	–	–	–
CCC(C)C1NC(=O)C(NC(=O)c2c3nc4c(C(=O)NC5C(=O)NC(C(C)CC)C(=O)N6CCCC6C(=O)N(C)CC(=O)N(C)C(C(C)C)C(=O)OC5C)ccc(C)c4oc-3c(C)c(=O)c2N)C(C)OC(=O)C(C(C)C)N(C)C(=O)CN(C)C(=O)C2CCCN2C1=O (stereo unspecified) (I: TIP[Sar][NMeV] / II: TIP[Sar][NMeV]; ester I:1-I:C, II:1-II:C; linker I:N-II:N via Actinocin(1to9); configuration not given here)	0.578 µM	0.00726 µM	0.00698 µM	10.9 µM	0.00309 µM	10.9 µM	0.0389 µM	0.0861 µM	0.0841 µM	0.58 µM	–	–	–	–	–	–	–	–	–
CC(C)(C)OC(=O)n1c2ccccc2c2c(=O)nc(N3CCCCC3)sc21	> 100 µM	> 100 µM	> 100 µM	> 100 µM	> 100 µM	> 100 µM	> 100 µM	> 100 µM	> 100 µM	> 100 µM	–	–	–	–	–	–	–	–	–
O=C(CSc1nc2ccc([N+](=O)[O-])cc2s1)c1ccc2ccccc2c1	> 100 µM	> 100 µM	> 100 µM	> 100 µM	> 100 µM	> 100 µM	> 100 µM	> 100 µM	> 100 µM	> 100 µM	–	–	–	–	–	–	–	–	–
CN(C)c1ccc(C=Nc2ccc(Oc3ccc(Cl)cc3)c(Cl)c2)cc1	55.9 µM	44.6 µM	39.8 µM	34.7 µM	45.2 µM	53.4 µM	32.4 µM	67.2 µM	33.2 µM	44.1 µM	–	–	–	–	–	–	–	–	–
Nc1ncnc2c1sc1nc3ccccc3n12	> 100 µM	> 100 µM	47.9 µM	> 100 µM	> 100 µM	> 100 µM	> 100 µM	> 100 µM	> 96.4 µM	> 100 µM	–	–	–	–	–	–	–	–	–
Cc1ccccc1N=Nc1c(O)c(S(=O)(=O)O)cc2cc(S(=O)(=O)O)ccc12	> 100 µM	> 100 µM	> 100 µM	> 100 µM	> 100 µM	> 100 µM	> 100 µM	> 100 µM	> 100 µM	> 100 µM	–	–	–	–	–	–	–	–	–
COc1cc2oc(=O)ccc2cc1C(=O)CC(C)C	> 100 µM	> 100 µM	> 100 µM	> 100 µM	> 100 µM	> 100 µM	> 100 µM	42.8 µM	> 100 µM	> 100 µM	–	–	–	–	–	–	–	–	–
O=c1ccc2nc3cc(Br)ccc3sc-2c1	> 100 µM	> 100 µM	> 100 µM	> 100 µM	> 100 µM	> 100 µM	> 100 µM	> 100 µM	–	–	–	–	–	–	–	–	–	–	–
O=c1c2cc(I)ccc2nc(SCc2nncs2)n1Cc1ccccc1	> 100 µM	> 100 µM	84.1 µM	> 100 µM	> 100 µM	> 100 µM	> 100 µM	–	57.8 µM	> 100 µM	–	–	–	–	–	–	–	–	–
C[N+]1(CCC(=O)c2ccco2)CC2CCC(CC2)C1 (stereo unspecified)	–	> 100 µM	> 100 µM	> 100 µM	> 100 µM	> 100 µM	> 100 µM	> 100 µM	> 100 µM	> 100 µM	–	–	–	–	–	–	–	–	–
Cn1c(=O)[nH]c2nncnc2c1=O	498 µM	302 µM	246 µM	312 µM	501 µM	> 525 µM	298 µM	46.5 µM	–	–	–	–	–	–	–	–	–	–	–
O=c1[nH]c2nnc(COc3ccc(Cl)cc3Cl)n2nc1Cc1ccccc1	58.8 µM	> 100 µM	39.8 µM	53.1 µM	> 100 µM	> 100 µM	74.3 µM	> 100 µM	> 100 µM	> 100 µM	–	–	–	–	–	–	–	–	–
Cc1c(N2C(=O)/C(=C/c3ccc(Cl)cc3)N=C2c2ccccc2)c(=O)n(-c2ccccc2)n1C	> 100 µM	42.8 µM	73.6 µM	96.3 µM	30.1 µM	99.4 µM	> 100 µM	> 100 µM	–	> 100 µM	–	–	–	–	–	–	–	–	–
